From patent US20260146035A1, “FUSED BICYCLIC COMPOUNDS AND THEIR USE AS MER AND AXL INHIBITORS” (DONG-A ST CO., LTD., priority 2022, published 2026)

Tests used:
human MER (528-end) = target: T1, human MER (528-end) (Homo sapiens, UniProt Q12866); assay: HTRF kinase activity biochemical assay, MER; details: 10 μM ATP, 30 minutes pre-incubation; read-out: HTRF MERTK IC50
T1 construct: human MER (528-end); purchased Camnabio, Japan
T1 sequence (Q12866 528-999 limits assumed): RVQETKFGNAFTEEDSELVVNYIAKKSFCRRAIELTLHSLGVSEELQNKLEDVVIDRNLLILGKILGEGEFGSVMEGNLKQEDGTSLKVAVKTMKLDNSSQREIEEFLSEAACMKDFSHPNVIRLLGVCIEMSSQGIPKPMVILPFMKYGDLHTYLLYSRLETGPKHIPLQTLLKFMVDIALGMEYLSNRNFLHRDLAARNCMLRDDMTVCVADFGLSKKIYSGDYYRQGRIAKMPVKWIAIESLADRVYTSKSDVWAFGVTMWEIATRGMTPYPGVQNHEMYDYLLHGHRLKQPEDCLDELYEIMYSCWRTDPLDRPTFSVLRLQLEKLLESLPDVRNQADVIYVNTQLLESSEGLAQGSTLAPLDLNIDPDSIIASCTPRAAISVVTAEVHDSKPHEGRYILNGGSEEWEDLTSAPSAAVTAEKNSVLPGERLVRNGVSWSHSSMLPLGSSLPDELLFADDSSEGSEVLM
Protocol: (§1) For the SAR (structure-activity relationship) and compound screening, HTRF (Homogeneous Time Resolved Fluorescence) kinase activity assay was employed for all MER, AXL and TYRO3 kinases using Cisbio HTRF® KinEASE™-TK kit (Cisbio, USA). The kit included biotin-labeled TK substrate, streptavidin-XL665, Eu3+-cryptate-labeled TK antibody and HTRF® Detection buffer. There are two main steps in the kinase assay: kinase reaction and detection of phosphorylated substrate. The reaction was carried out in white low volume 384-well plate (Corning, USA) with 25 nL compound in dimethyl sulfoxide in each well. […] After 1 hour incubation at room temperature, the fluorescence intensity was measured with Envision[…] plate reader (PerkinElmer, USA). Upon excitation at 340 nm by UV, the energy from Eu3+ donor of the antibody is transferred to the FRET acceptor XL665, and […] emits light at 665 nm.

human AXL (473-end) = target: T2, human AXL (473-end) (Homo sapiens, UniProt P30530); assay: HTRF kinase activity biochemical assay, AXL; details: 10 μM ATP, 30 minutes pre-incubation
T2 construct: human AXL (473-end); purchased SignalChem, Canada
T2 sequence (P30530 473-894 limits assumed): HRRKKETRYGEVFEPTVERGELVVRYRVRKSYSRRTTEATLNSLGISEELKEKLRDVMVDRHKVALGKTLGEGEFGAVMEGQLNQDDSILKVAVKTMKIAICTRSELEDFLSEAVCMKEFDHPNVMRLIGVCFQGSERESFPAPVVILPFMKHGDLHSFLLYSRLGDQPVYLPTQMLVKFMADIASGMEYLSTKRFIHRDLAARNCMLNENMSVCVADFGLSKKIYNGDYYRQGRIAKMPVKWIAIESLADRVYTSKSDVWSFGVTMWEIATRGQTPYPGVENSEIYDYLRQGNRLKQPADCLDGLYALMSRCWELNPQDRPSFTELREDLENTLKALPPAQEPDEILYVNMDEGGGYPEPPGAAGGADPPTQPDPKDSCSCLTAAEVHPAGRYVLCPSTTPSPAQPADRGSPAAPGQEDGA
Protocol: as §1

human TYRO3 (455-end) = target: T3, human TYRO3 (455-end) (Homo sapiens, UniProt Q06418); assay: HTRF kinase activity biochemical assay, TYRO3; details: 10 μM ATP, 30 minutes pre-incubation; read-out: HTRF TYRO IC50
T3 construct: TYRO3 (455-end); purchased SignalChem, Canada
T3 sequence (Q06418 455-890 limits assumed): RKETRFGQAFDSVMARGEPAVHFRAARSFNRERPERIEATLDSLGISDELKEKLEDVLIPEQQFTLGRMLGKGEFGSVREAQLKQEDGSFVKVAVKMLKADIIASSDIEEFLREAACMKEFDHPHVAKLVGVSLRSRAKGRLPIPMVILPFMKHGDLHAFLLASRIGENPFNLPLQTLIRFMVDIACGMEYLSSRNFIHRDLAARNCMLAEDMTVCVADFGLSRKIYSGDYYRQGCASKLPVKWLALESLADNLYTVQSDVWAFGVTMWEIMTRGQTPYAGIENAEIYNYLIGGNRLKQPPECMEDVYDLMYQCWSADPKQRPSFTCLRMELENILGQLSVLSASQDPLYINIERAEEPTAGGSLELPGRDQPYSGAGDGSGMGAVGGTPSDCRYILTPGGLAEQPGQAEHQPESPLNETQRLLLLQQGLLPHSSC
Protocol: as §1

| IC50 (human MER (528-end)) | IC50 (human AXL (473-end)) | IC50 (human TYRO3 (455-end)) | SMILES |
| --- | --- | --- | --- |
| < 10 nM | 10 to 100 nM | 100 to 1000 nM | Cn1cc(-c2cnc(N)c(C(=O)N[C@H]3COC[C@@H]3OCc3ccc(-c4ccc5c(c4)C(C)(C)CN5C4CCN(CCO)CC4)cc3)n2)cn1 [Example 71, 3-amino-N-{(3S,4R)-4-[(4-{1-[1-(2-hydroxyethyl)piperidin-4-yl]-3,3-dimethyl-2,3-dihydro-1H-indol-5-yl}phenyl)methoxy]oxolan-3-yl}-6-(1-methyl-1H-pyrazol-4-yl)pyrazine-2-carboxamide] |
| 100 to 1000 nM | 100 to 1000 nM | > 1000 nM | CN(C)CC(=O)N1CCc2cc(-c3ccc(CO[C@H]4CCC[C@@H]4NC(=O)c4cc(-c5cnn(C)c5)cnc4N)cc3)ccc21 [Example 2, 2-amino-N-{(1S,2S)-2-[(4-{1-[(dimethylamino)acetyl]-2,3-dihydro-1H-indol-5-yl}phenyl)methoxy]cyclopentyl}-5-(1-methyl-1H-pyrazol-4-yl)pyridine-3-carboxamide] |
| < 10 nM | 10 to 100 nM | 100 to 1000 nM | CC1(C)CN(C2CCN(CCO)CC2)c2ccc(-c3ccc(CO[C@H]4COC[C@@H]4NC(=O)c4cc(-c5ccc(F)nc5)cnc4N)cc3)cc21 [Example 35, 6-amino-6′-fluoro-N-{(3S,4R)-4-[(4-{1-[1-(2-hydroxyethyl)piperidin-4-yl]-3,3-dimethyl-2,3-dihydro-1H-indol-5-yl}phenyl)methoxy]oxolan-3-yl}[3,3′-bipyridine]-5-carboxamide] |
| < 10 nM | < 10 nM | 100 to 1000 nM | Nc1ncc(-c2ccc(F)nc2)cc1C(=O)N[C@H]1CCC[C@@H]1OCc1ccc(-c2ccc3c(c2)CC(F)(F)C3N2CCN(CCO)CC2)cc1 (stereo partly drawn) [Example 86, 6-amino-N-{(1S,2S)-2-[(4-{2,2-difluoro-1-[4-(2-hydroxyethyl)piperazin-1-yl]-2,3-dihydro-1H-inden-5-yl}phenyl)methoxy]cyclopentyl}-6′-fluoro[3,3′-bipyridine]-5-carboxamide] |
| < 10 nM | 10 to 100 nM | 100 to 1000 nM | CN1C[C@H](NC(=O)c2cc(-c3ccc(F)nc3)cnc2N)[C@@H](OCc2ccc(-c3ccc4c(c3)C(C)(C)CN4C3CCN(CCO)CC3)cc2)C1 [Example 37, 6-amino-6′-fluoro-N-{(3S,4S)-4-[(4-{1-[1-(2-hydroxyethyl)piperidin-4-yl]-3,3-dimethyl-2,3-dihydro-1H-indol-5-yl}phenyl)methoxy]-1-methylpyrrolidin-3-yl}[3,3′-bipyridine]-5-carboxamide] |
| < 10 nM | 10 to 100 nM | > 1000 nM | CN1CCC(C(=O)NC2Cc3ccc(-c4ccc(CO[C@H]5CCC[C@@H]5NC(=O)c5cc(-c6cnn(C)c6)cnc5N)cc4)cc3C2)CC1 (stereo partly drawn) [Example 10, 2-amino-N-{(1S,2S)-2-[(4-{2-[(1-methylpiperidine-4-carbonyl)amino]-2,3-dihydro-1H-inden-5-yl}phenyl)methoxy]cyclopentyl}-5-(1-methyl-1H-pyrazol-4-yl)pyridine-3-carboxamide] |
| < 10 nM | < 10 nM | 10 to 100 nM | Cn1cc(-c2cnc(N)c(C(=O)N[C@H]3CCC[C@@H]3OCc3ccc(-c4ccc5c(c4)CC[C@@H]5N4CCN(CC(O)CO)CC4)cc3)c2)cn1 (stereo partly drawn) [Example 98, 2-amino-N-{(1S,2S)-2-[(4-{(1S)-1-[4-(2,3-dihydroxypropyl)piperazin-1-yl]-2,3-dihydro-1H-inden-5-yl}phenyl)methoxy]cyclopentyl}-5-(1-methyl-1H-pyrazol-4-yl)pyridine-3-carboxamide] |
| < 10 nM | < 10 nM | 10 to 100 nM | CN1CCN([C@H]2CC(C)(C)c3cc(-c4ccc(CO[C@H]5CCC[C@@H]5NC(=O)c5cc(-c6cccnc6F)cnc5N)cc4)ccc32)CC1 [Example 150, 6-amino-N-[(1S,2S)-2-({4-[(1S)-3,3-dimethyl-1-(4-methylpiperazin-1-yl)-2,3-dihydro-1H-inden-5-yl]phenyl}methoxy)cyclopentyl]-2′-fluoro[3,3′-bipyridine]-5-carboxamide] |
| < 10 nM | < 10 nM | 10 to 100 nM | Cc1c(-c2cnc(N)c(C(=O)N[C@H]3COC[C@@H]3OCc3ccc(-c4ccc5c(c4)C(C)(C)CN5C4CCN(CCO)CC4)cc3)c2)cnn1C [Example 47, 2-amino-5-(1,5-dimethyl-1H-pyrazol-4-yl)-N-{(3S,4R)-4-[(4-{1-[1-(2-hydroxyethyl)piperidin-4-yl]-3,3-dimethyl-2,3-dihydro-1H-indol-5-yl}phenyl)methoxy]oxolan-3-yl}pyridine-3-carboxamide] |
| < 10 nM | < 10 nM | 100 to 1000 nM | COc1c(-c2cnn(C)c2)cnc(N)c1C(=O)N[C@H]1CCC[C@@H]1OCc1ccc(-c2ccc3c(c2)CC[C@@H]3N2CCN(C)CC2)cc1 [Example 157, 2-amino-4-methoxy-N-[(1S,2S)-2-({4-[(1S)-1-(4-methylpiperazin-1-yl)-2,3-dihydro-1H-inden-5-yl]phenyl}methoxy)cyclopentyl]-5-(1-methyl-1H-pyrazol-4-yl)pyridine-3-carboxamide] |
| < 10 nM | < 10 nM | 10 to 100 nM | Nc1ncc(-c2cncs2)cc1C(=O)N[C@H]1CCC[C@@H]1OCc1ccc(-c2ccc3c(c2)CC[C@@H]3N2CCN(CCO)CC2)cc1 [Example 176, 2-amino-N-{(1S,2S)-2-[(4-{(1S)-1-[4-(2-hydroxyethyl)piperazin-1-yl]-2,3-dihydro-1H-inden-5-yl}phenyl)methoxy]cyclopentyl}-5-(1,3-thiazol-5-yl)pyridine-3-carboxamide] |
| < 10 nM | < 10 nM | 10 to 100 nM | Cn1ccc(-c2cnc(N)c(C(=O)N[C@H]3CCC[C@@H]3OCc3ccc(-c4ccc5c(c4)CC[C@@H]5N4CCN(CCO)CC4)cc3)c2)cc1=O [Example 92, 6-amino-N-{(1S,2S)-2-[(4-{(1S)-1-[4-(2-hydroxyethyl)piperazin-1-yl]-2,3-dihydro-1H-inden-5-yl}phenyl)methoxy]cyclopentyl}-1′-methyl-2′-oxo-1′,2′-dihydro[3,4′-bipyridine]-5-carboxamide] |
| < 10 nM | < 10 nM | 10 to 100 nM | Nc1ncc(-c2cccnc2F)cc1C(=O)N[C@H]1CCC[C@@H]1OCc1ccc(-c2ccc3c(c2)CCCC3N2CCN(CCO)CC2)cc1 (stereo partly drawn) [Example 149, 6-amino-2′-fluoro-N-{(1S,2S)-2-[(4-{5-[4-(2-hydroxyethyl)piperazin-1-yl]-5,6,7,8-tetrahydronaphthalen-2-yl}phenyl)methoxy]cyclopentyl}[3,3′-bipyridine]-5-carboxamide] |
| < 10 nM | < 10 nM | 10 to 100 nM | Nc1ncc(-c2cncc(F)c2)cc1C(=O)N[C@H]1CCC[C@@H]1OCc1ccc(-c2ccc3c(c2)CCCC3N2CCN(CCO)CC2)cc1 (stereo partly drawn) [Example 123, 6-amino-5′-fluoro-N-{(1S,2S)-2-[(4-{5-[4-(2-hydroxyethyl)piperazin-1-yl]-5,6,7,8-tetrahydronaphthalen-2-yl}phenyl)methoxy]cyclopentyl}[3,3′-bipyridine]-5-carboxamide] |
